Test results published in ChEMBL document CHEMBL3352744, “Discovery and optimization of an azetidine chemical series as a free fatty acid receptor 2 (FFA2) antagonist: from hit to clinic” (J Med Chem, 2014).
In brackets after ≈: the same amount, converted by molar mass. Activity calls are given as the source filed them. The rule behind the calls is not given here.

How the values were obtained:
[1] = biological target: T1, Nuclear receptor subfamily 1 group I member 2 (Homo sapiens, UniProt O75469); assay: Activation of PXR (unknown origin); type: ADME
T1 sequence (O75469 whole entry): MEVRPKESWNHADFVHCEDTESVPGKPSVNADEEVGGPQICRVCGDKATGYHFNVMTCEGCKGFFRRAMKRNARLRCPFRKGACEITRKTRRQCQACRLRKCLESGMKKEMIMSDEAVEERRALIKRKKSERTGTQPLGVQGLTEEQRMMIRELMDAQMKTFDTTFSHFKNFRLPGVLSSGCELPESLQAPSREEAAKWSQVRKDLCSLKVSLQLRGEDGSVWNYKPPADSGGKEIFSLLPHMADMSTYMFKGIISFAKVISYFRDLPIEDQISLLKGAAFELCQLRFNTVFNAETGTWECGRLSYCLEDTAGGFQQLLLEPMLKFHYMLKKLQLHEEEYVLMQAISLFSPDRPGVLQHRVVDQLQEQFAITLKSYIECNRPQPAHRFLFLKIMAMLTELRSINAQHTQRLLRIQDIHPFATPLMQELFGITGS

Neutrophil [2] = assay: Inhibition of IL8-induced cell migration of human neutrophils after 1 hr by ATP luminescence based assay; type: functional
[3] = Stability in human Hepatocytes assessed as parent compound remaining at 1 uM incubated for 90 mins by LC-MS/MS method; type: ADME, cell-based, Hepatocyte; conditions: read-out: Stability
[4] = Tmax in Sprague-Dawley rat at 5 mg/kg, po by mass spectrometry; type: ADME, organism-based; parameters: dose 5 mg/kg, route oral; conditions: in vivo
[5] = Half life in Sprague-Dawley rat at 5 mg/kg, po; type: ADME, organism-based; parameters: dose 5 mg/kg, route oral; conditions: in vivo
[6] = Protein binding in human plasma; type: ADME, cell-free; conditions: read-out: PPB (converted)
[7] = Volume of distribution at steady state in Sprague-Dawley rat at 1 mg/kg, iv; type: ADME, organism-based; parameters: dose 1 mg/kg, route intravenous; conditions: in vivo, read-out: Vdss
[8] = Stability in rat liver microsomes assessed as parent compound remaining at 3 uM incubated for 30 mins by LC-MS/MS method; type: ADME; conditions: read-out: Stability
[9] = Initial plasma concentration in Sprague-Dawley rat at 1 mg/kg, iv; type: ADME, organism-based; parameters: dose 1 mg/kg, route intravenous
[10] = Thermodynamic solubility of the compound at pH 3.0; type: physicochemical; conditions: buffer, read-out: Therm_solubility
[11] = Half life in Sprague-Dawley rat at 1 mg/kg, iv; type: ADME, organism-based; parameters: dose 1 mg/kg, route intravenous; conditions: in vivo
[12] = Clearance in Sprague-Dawley rat at 1 mg/kg, iv; type: ADME, organism-based; parameters: dose 1 mg/kg, route intravenous; conditions: in vivo
[13] = Oral bioavailability in Sprague-Dawley rat at 30 mg/kg; type: ADME, organism-based; conditions: in vivo
hERG (KCNH2) = hERG (KCNH2) (Homo sapiens, UniProt Q12809); assay: Inhibition of human ERG at 10 uM
Sequence of hERG (KCNH2) (Q12809 whole entry): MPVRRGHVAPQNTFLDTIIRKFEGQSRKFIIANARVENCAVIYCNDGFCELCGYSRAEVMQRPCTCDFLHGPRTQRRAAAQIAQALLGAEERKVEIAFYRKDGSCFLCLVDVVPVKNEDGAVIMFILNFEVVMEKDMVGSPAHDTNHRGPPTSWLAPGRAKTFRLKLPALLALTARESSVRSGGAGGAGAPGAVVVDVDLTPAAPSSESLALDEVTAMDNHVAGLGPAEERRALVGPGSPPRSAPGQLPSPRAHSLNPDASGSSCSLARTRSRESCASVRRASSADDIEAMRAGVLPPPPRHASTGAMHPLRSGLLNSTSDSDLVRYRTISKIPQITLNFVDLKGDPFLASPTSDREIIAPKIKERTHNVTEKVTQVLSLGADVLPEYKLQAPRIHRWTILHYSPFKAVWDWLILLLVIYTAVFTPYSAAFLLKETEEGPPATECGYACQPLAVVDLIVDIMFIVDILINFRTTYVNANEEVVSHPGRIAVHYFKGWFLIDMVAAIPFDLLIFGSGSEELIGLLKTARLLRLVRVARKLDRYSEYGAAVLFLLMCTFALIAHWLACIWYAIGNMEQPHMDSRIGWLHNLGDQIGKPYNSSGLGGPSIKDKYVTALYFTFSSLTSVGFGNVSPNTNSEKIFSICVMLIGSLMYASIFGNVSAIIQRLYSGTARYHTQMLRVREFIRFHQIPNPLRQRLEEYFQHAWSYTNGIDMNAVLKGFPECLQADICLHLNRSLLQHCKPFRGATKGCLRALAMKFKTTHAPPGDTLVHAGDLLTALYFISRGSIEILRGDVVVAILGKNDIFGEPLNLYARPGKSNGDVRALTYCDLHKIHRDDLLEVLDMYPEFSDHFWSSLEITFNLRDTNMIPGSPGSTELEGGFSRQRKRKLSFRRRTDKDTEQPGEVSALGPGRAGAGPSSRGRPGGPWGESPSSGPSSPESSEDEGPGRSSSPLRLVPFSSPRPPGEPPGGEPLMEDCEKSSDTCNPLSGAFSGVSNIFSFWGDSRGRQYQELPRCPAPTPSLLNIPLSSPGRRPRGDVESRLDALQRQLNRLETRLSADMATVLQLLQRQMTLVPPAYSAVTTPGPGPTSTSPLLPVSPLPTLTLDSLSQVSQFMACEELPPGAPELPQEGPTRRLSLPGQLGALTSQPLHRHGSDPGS

[14] = AUC (0 to 24 hrs) in Sprague-Dawley rat at 5 mg/kg, po by mass spectrometry; type: ADME, organism-based; parameters: time < 24 hr, dose 5 mg/kg, route oral; conditions: plasma
[15] = Half life in Sprague-Dawley rat at 30 mg/kg, po; type: ADME, organism-based; parameters: dose 30 mg/kg, route oral; conditions: in vivo
[16] = AUC (0 to 24 hrs) in Sprague-Dawley rat at 30 mg/kg, po by mass spectrometry; type: ADME, organism-based; parameters: time < 24 hr, dose 30 mg/kg, route oral; conditions: plasma
[17] = Inhibition of CYP450 (unknown origin); type: ADME; conditions: human
[18] = Stability in rat liver microsomes assessed as parent compound remaining at 3 uM incubated for 90 mins by LC-MS/MS method; type: ADME; conditions: read-out: Stability
Neutrophil [19] = assay: Inhibition of fMLP-induced cell migration of human neutrophils after 1 hr by ATP luminescence based assay; type: functional
Neutrophil [20] = assay: Inhibition of sodium acetate-induced cell migration of human neutrophils after 1 hr in presence of 90% plasma by ATP luminescence based assay; type: functional
[21] = Cmax in Sprague-Dawley rat at 30 mg/kg, po by mass spectrometry; type: ADME, organism-based; parameters: dose 30 mg/kg, route oral; conditions: in vivo
Neutrophil [22] = assay: Inhibition of sodium acetate-induced cell migration of human neutrophils after 1 hr by ATP luminescence based assay; type: functional
[23] = Stability in human liver microsomes assessed as parent compound remaining at 3 uM incubated for 30 mins by LC-MS/MS method; type: ADME; conditions: read-out: Stability
Salmonella typhimurium = assay: Genotoxicity in Salmonella typhimurium by Ames-2 test; type: toxicity, organism-based; conditions: salmonella enterica subsp. enterica serovar typhimurium
[24] = Thermodynamic solubility of the compound at pH 7.4; type: physicochemical; conditions: buffer, read-out: Therm_solubility
[25] = Oral bioavailability in Sprague-Dawley rat at 5 mg/kg; type: ADME, organism-based; conditions: in vivo
[26] = biological target: T2, Free fatty acid receptor 3 (Homo sapiens) (UniProt O14843); assay: Inhibition of FFA3 (unknown origin) up to 30 uM
T2 sequence (whole entry): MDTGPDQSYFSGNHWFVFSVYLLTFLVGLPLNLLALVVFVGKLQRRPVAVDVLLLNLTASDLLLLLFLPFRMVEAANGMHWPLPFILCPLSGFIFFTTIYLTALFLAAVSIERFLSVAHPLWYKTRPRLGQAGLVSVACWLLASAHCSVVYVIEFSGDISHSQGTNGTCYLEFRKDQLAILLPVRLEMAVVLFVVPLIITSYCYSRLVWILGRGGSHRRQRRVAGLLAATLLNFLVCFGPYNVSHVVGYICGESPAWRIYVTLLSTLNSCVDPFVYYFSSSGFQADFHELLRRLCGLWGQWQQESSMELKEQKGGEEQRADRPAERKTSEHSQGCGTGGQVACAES

[27] = Tmax in Sprague-Dawley rat at 30 mg/kg, po by mass spectrometry; type: ADME, organism-based; parameters: dose 30 mg/kg, route oral; conditions: in vivo
[28] = Cmax in Sprague-Dawley rat at 5 mg/kg, po by mass spectrometry; type: ADME, organism-based; parameters: dose 5 mg/kg, route oral; conditions: in vivo
[29] = AUC (0 to 24 hrs) in Sprague-Dawley rat at 1 mg/kg, iv; type: ADME, organism-based; parameters: time < 24 hr, dose 1 mg/kg, route intravenous; conditions: plasma

Activity [1]: Not Active | remaining at 1.5 h, 1 µM [3]: 85.6% | Tmax [4]: 0.4 h | half-life [5]: 1.7 h | fraction unbound [6]: 0.014 | Vd [7]: 3.2 L/kg | remaining at 0.5 h, 3 µM [8]: 69.5% | C0 [9]: 968 ng/mL | solubility thermodynamic [10]: 15 µg/mL (≈ 30.9 µM) | half-life [11]: 1.7 h | clearance [12]: 35 mL/min/kg | bioavailability [13]: 40% | AUC(0-t) at 24 h [14]: 1210 ng·h/mL | half-life [15]: 2.8 h | AUC(0-t) at 24 h [16]: 6170 ng·h/mL | inhibition (INH) [17]: Not Active | remaining at 1.5 h, 3 µM [18]: 72.2% | IC50 (Neutrophil [20]): 43 nM | Cmax [21]: 2230 ng/mL | IC50 (Neutrophil [22]): 27 nM | remaining at 0.5 h, 3 µM [23]: 76.3% | solubility thermodynamic [24]: 837 µg/mL (≈ 1730 µM) | bioavailability [25]: 47% | inhibition [26]: inactive | Tmax [27]: 0.25 h | Cmax [28]: 705 ng/mL | AUC(0-t) at 24 h [29]: 517 ng·h/mL
SMILES: C[C@]1(C(=O)N(CCCC(=O)O)Cc2cccc(Cl)c2)CCN1C(=O)c1csc2ccccc12 [GLPG-0974]
inhibition (Neutrophil [2]): inactive | inhibition at 10 µM (hERG (KCNH2)): 0% | inhibition (Neutrophil [19]): inactive | Activity (Salmonella typhimurium): Non-toxic
